Data reported in publication PMC5789092 (Scientific Reports, 2018).
Where two headings read alike, the source gives them in different places.

How the values were obtained:
cancer cells = tested on: cancer cells; parameters: method as in PMID 24763364, PMID 27262408; details: ref [19],[33]; cited from earlier work
[1] = tested on: HepG2 (human liver cancer); assay: SRB cytotoxicity assay, HepG2; assay type: cell-based; details: 72 h, mean ± SD, read-out: IC50 HepG2
[2] = tested on: CHO (Chinese hamster ovary); details: footnote c; ref Dong et al.[19]; cited from earlier work
[3] = tested on: HEp-2 (human larynx epidermal cancer); details: footnote c; ref Dong et al.[19]; cited from earlier work
PC-3 cells [4] = assay: Hoechst 33258 nuclear chromatin condensation, PC-3; assay type: cell-based, human; details: PC-3, 72 h; VP-16 0.5 and 1 μM; 1i 1, 2 and 4 μM
Protocol: Figure 10 Induction of apoptosis by active compound 1i and VP-16 at the indicated concentrations on PC-3 cells. (a) 72 h after the treatment of these compounds at the indicated concentrations, cells were fixed, washed with PBS, stained with Hoechst 33258, and analyzed for morphological characteristics associated with apoptosis by fluorescence microscopic analysis (×20). (b) Compound 1i triggered changes of pro-caspase 3 and PARP by Western blotting analysis. Cells were lysed after 72 h treatment with 1i at the concentration (1, 2 and 4 μM). The lysates were resolved on a 10% SDS-PAGE, transferred on to a nitrocellulose membrane and probed for cleaved caspase 3 and PARP. β-actin was used as a loading control.
Condensation of nuclear chromatin is usually the late apoptotic event and is detected by staining Hoechst 33258[43]. PC-3 cells containing 2.0 × 10^5 cells/well were cultured on coverslips, and kept in six-well plates for 12 h. After 72 h treatment with 1i and VP-16, Hoechst 33258 staining was carried out according to the kit’s procedure (Beyotime Institute Biotechnology, China). The cells were viewed under a fluorescence microscopy (Olympus BX53 + DP72) with a ×20 objective lens.

PC-3 cells [5] = assay: Cell cycle analysis (PI staining, flow cytometry); assay type: cell-based, human; details: PC-3, 48 h
Protocol: The cultured cells were treated with these compounds at the indicated concentrations for 48 h, then harvested, and analyzed by flow cytometry. […] Each experiment was performed in triplicate.
The cell cycle arrest on PC-3 and HepG2 cells was detected with PI staining assay (Sigma) as described previously[19]. After treatment with samples at the set concentrations for 48 h, cells were centrifuged and fixed in 70% ethanol at 4 °C refrigerator 12 h and then resuspended in PBS (100 μL RNase A and 400 μL PI). Cellular DNA content was measured using a FACSCalibur flow cytometer with Modfit LT 3.0 software. Twenty thousand cells were collected per sample. Mean values are presented from three independent experiments.

[6] = tested on: HeLa (human cervix cancer); parameters: method as in Dong et al.[19]; details: footnote c; ref Dong et al.[19]; cited from earlier work
[7] = tested on: PC-3 (human prostate cancer); assay: SRB cytotoxicity assay, PC-3; assay type: cell-based; details: 72 h, mean ± SD, read-out: IC50 PC-3
[8] = tested on: HUVEC (human umbilical vein endothelial cell); assay: SRB cytotoxicity assay, HUVEC normal cells; assay type: cell-based; details: Homo sapiens, HUVEC; 72 h, SRB, normal cell line
[9] = tested on: HEp-2 (human larynx epidermal cancer); assay: SRB cytotoxicity assay, HEp-2; assay type: cell-based; details: 72 h, mean ± SD
From the text: (§1) All the synthesized derivatives of 1 and 2 were screened for their anticancer activities against four human cancer cell lines (HeLa, PC-3, HEp-2 and HepG2) and two normal cell lines (CHO and HUVEC) using the sulforhodamine B (SRB) assay.
(§2) PC-3 (human prostate cancer), HepG2 (human liver cancer) and CHO (Chinese hamster ovary) cell lines were obtained from Shanghai Institute of Biochemistry and Cell Biology, Chinese Academy of Sciences. HeLa (human cervix cancer), HUVEC (human umbilical vein endothelial cells) and HEp-2 (human laryngeal cancer) cell lines were granted by Prof. Lei of college of life sciences, Northwest A&F University. The six cell lines were grown in RPMI-1640 (Gibco) containing 10% (v/v) thermally inactivated fetal bovine serum (FBS), penicillin (100 KU/L) and streptomycin (100 KU/L) at 37 °C in a 5% CO2 humidified incubator.
(§3) In vitro cytotoxicity was assessed by using the SRB colorimetric assay refer to previous methods[19],[42].

[10] = tested on: canonical p50/p65 NF-κB signaling in PC-3 cells; assay: NF-κB luciferase reporter assay, TNF-α-induced; assay type: cell-based, human; details: 10 μM, 8 h, TNF-α 50 ng/mL
From the text: The canonical NF-κB signaling pathway is a target for developing therapeutics for multiple human diseases, including cancer and chronic inflammatory diseases[46],[47]. Many STLs are known modulators of NF-κB signaling[7],[48]. In particular, two famous STLs parthenolide and helenalin have been certified to covalently target Cys38 of NF-κB p65 through hetero-Michael addition between exocyclic methylene butyrolactones and biological thiol of Cys38[49],[50]. […] To test the inhibition of active compound in NF-κB signaling, 1i and parthenolide (P, positive control) were screened for inhibitory activity toward canonical p50/p65 NF-κB signaling with a cellular luciferase assay (Fig. 12)[51]. […] The observation that 1i and P are comparably potent in this assay hints at the possibility that 1i may also have similar properties like 1β-hydroxy alantolactone and parthenolide in cells.
Figure 12 NF-κB-luciferase inhibition assay in PC-3 cells. PC-3 cells with a stably transfected NF-κB luciferase reporter were stimulated with TNF-α (50 ng/mL) (except for noninduced control, Non-Ind) and different dose of parthenolide (P) and 1i for 8 h. Normalized luminescence was plotted as NF-κB luciferase activity compared to control (%).
PC-3 cells (8000 cells/well) were placed in a 96-well plate and the cells were then transfected with pNF-κB-Luc expression plasmid reference to the method.

[11] = tested on: HeLa (human cervix cancer); assay: SRB cytotoxicity assay, HeLa; assay type: cell-based; details: 72 h, mean ± SD
[12] = tested on: CHO (Chinese hamster ovary); assay: SRB cytotoxicity assay, CHO normal cells; assay type: cell-based; details: Cricetulus griseus, 72 h, normal cell line
From the text: as §1, §2, §3

| SMILES | fold stronger suppression against cancer cells compared with ABL (cancer cells) | IC50 [1] [µM] | IC50 [2] [µM] | IC50 [3] [µM] | nuclear morphology (Hoechst 33258), apoptosis (PC-3 cells [4]) | %G0/G1 (PC-3 cells [5]; 1.0 μM) [%] | %G2/M (PC-3 cells [5]; 1.0 μM) [%] | %S (PC-3 cells [5]; 1.0 μM) [%] | IC50 [6] [µM] | IC50 [7] [µM] | IC50 [8] [µM] | IC50 [9] [µM] | %G0/G1 (PC-3 cells [5]; 4.0 μM) [%] | %G2/M (PC-3 cells [5]; 4.0 μM) [%] | %S (PC-3 cells [5]; 4.0 μM) [%] | NF-κB luciferase activity compared to control [10] [%] | IC50 [11] [µM] | IC50 [12] [µM] |
| --- | --- | --- | --- | --- | --- | --- | --- | --- | --- | --- | --- | --- | --- | --- | --- | --- | --- | --- |
| C=C1C(=O)OC2CC(C)=C(C(C)CCCOC(C)=O)C(OC(=O)CCCCCCCCCCC)C12 (stereo not shown) [ABL-L, 1-O-acetyl-6-O-lauroylbritannilactone] | 4–10 fold |  |  |  |  |  |  |  |  |  |  |  |  |  |  |  |  |  |
| COc1cc([C@@H]2c3cc4c(cc3[C@@H](O[C@@H]3O[C@@H]5CO[C@@H](C)O[C@H]5[C@H](O)[C@H]3O)[C@H]3COC(=O)[C@H]23)OCO4)cc(OC)c1O [VP-16, etoposide, reference compound] |  | 7.6 ± 0.8 | 2.6 ± 0.2 | 4.8 ± 0.5 | fragmentation and condensation of chromatin | 28.1 | 42.4 | 29.5 | 3 ± 0.3 | 0.6 ± 0.1 | 1.9 ± 0.2 |  |  |  |  |  |  |  |
| C=C1C(=O)O[C@H]2[C@H]1CC/C(C)=C/CC[C@@]1(C)O[C@@H]21 [P, parthenolide, reference compound] |  |  |  |  |  |  |  |  |  | 3.4 ± 0.6 |  | 6.8 ± 0.3 | 46.2 | 18.2 | 35.6 | 52.1 | 7.6 ± 0.6 | 5.3 ± 0.7 |
